{"source": "patent EP3733658B1", "about": "“PRENYLATED BENZOPYRANES AS PPAR AGONISTS” (Universitat de València, priority 2017, dated 2019)", "key": {"RXRα/PPARγ interaction": {"biological_target": "T1, RXRα/PPARγ interaction (Homo sapiens, UniProt P37231)", "T1 construct": "endogenous in cells; host or cells: HUVEC", "T1 sequence (P37231 29-505 limits assumed)": "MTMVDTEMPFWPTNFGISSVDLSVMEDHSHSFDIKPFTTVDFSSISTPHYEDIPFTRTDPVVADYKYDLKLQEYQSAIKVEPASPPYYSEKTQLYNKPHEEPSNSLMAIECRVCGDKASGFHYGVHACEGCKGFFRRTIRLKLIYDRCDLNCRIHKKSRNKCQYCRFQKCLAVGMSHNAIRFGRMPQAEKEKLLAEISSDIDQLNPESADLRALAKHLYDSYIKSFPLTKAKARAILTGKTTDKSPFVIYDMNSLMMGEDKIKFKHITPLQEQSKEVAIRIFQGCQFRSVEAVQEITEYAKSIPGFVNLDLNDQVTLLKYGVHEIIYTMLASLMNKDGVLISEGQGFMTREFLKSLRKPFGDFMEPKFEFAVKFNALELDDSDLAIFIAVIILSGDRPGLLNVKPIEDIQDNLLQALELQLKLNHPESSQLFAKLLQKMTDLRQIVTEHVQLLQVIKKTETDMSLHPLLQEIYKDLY", "T1 sequence (P19793 1-462 partner)": "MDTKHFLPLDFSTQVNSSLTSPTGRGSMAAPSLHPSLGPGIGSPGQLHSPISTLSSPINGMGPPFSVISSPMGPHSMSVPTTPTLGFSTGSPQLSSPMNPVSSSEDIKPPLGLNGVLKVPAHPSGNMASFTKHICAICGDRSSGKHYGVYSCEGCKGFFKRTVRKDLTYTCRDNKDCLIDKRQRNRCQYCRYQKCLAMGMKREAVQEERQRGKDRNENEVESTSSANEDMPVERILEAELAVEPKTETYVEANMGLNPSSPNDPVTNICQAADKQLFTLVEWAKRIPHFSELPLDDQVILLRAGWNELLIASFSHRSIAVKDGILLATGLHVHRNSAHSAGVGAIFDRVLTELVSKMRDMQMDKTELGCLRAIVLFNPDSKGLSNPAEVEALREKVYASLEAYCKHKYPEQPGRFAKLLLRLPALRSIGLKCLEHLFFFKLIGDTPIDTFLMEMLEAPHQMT", "assay": "Immunoprecipitation of PPARγ followed by Western blot for RXRα in HUVEC", "type": "cell-based", "settings": "pretreated HUVEC", "protocol": "For the immunoprecipitation, the protein extracts were obtained in 50 mM Tris-HCl (pH 8), 150 mM NaCl, 1% Nonidet P-40 and protease (1 mM PMSF, 40 µg/mL aprotinin and 40 µg/mL leupeptin) and phosphatase inhibitors. Then the protein extracts (~200 µg) were incubated with 5 µg of an antibody against PPARγ. Immunocomplexes were precipitated using an anti-rabbit IgG beads (cat# 8800, eBioscience, San Diego, CA) and suspended in a sample buffer with 50 mM dithiotreitol (DTT). Western blot was performed with an antibody against RXRα and the membranes were incubated with the secondary HRP-conjugate Rabbit TrueBlot (eBioscience, San Diego, CA) as secondary antibody. Chemoluminescence signals were developed with ECL (GE Healthcare, Madrid, Spain)."}, "MCP-1": {"system": "MCP-1", "assay": "Treatment of ob/ob mice: MCP-1 mRNA in WAT by real-time PCR", "type": "in vivo", "settings": "oral, 30 mg/Kg/d, 4 days", "description": "(§1) 6 animals were used in each group in independent experiments (n=6).\nThe total RNA was extracted from mouse WAT by homogenization. Reverse transcription was performed with 1000 ng of total RNA using the inverse transcription kit TaqMan (Applied Biosystems, Thermo Fisher Scientific, Waltham, MA) and converted to cDNA by standard methods. The cDNA was amplified with specific feeders for the mouse monocytic chemoattractant protein 1 (MCP-1 or CCL2, Mm00441242_m1) in a Real Time PCR 7900HT apparatus (Applied Biosystems, Thermo Fisher Scientific, Waltham, MA) using Universal Master Mix (Applied Biosystems, Thermo Fisher Scientific, Waltham, MA). All feeders were designed by Applied Biosystems. The relative quantification of the various transcriptions was determined by the 2^-ΔΔCt method using GAPDH (Applied Biosystems, Thermo Fisher Scientific, Waltham, MA) as endogenous and normalized control for the control group."}, "[1]": {"assay": "Treatment of ob/ob mice: body weight gain and feed efficiency", "settings": "oral, 4 days", "text": "Protocols conforming to European Union guidelines for the care and protection of animals were approved by the Ethics Committee of the University of Valencia. All efforts were made to minimize the number of animals used and their suffering. ob/ob mice have a leptin deficiency, and are associated with hyperphagia and obesity, as well as hyperglycemia and hyperinsulinemia. This study used male ob/ob mice (C57BU6J) (Charles River laboratories, Chatillon-sur-Chalaronne, France).\nThe mice were housed in individual cages in a room with controlled temperature, humidity and light. […] The mice were allowed to acclimate for ten days prior to the study.\nThe control ob/ob mice were just administered with vehicle (physiological saline solution with HEC 1%). […] The compounds were prepared freshly each day in a 1% suspension of HEC for oral administration. Randomization was performed based on the glycaemia values on day 0. For the duration of the experiment the amount of food ingested and the body weight were determined daily for each mouse. Every day between 9:00 and 11:00 a.m. (prior to treatment) blood glucose levels were measured using (Contour next USB Blood glucose meter, BAYER, Basel, Switzerland). On the fifth day of the experiment the mice were anesthesized with isofluorane and blood was extracted by cardiac puncture. The blood was collected in tubes containing EDTA or heparin. Plasma samples were obtained by centrifugation and stored at -80°C. After obtaining the samples, the animals were sacrificed by cervical dislocation and subsequently different organs such as white adipose tissue (WAT) and liver were extracted for additional studies. The organs were weighed and frozen for subsequent RNA analysis and to conduct histological studies\nThe weight gain at the end of treatment was calculated (d5-d0) (Figure 14A)."}, "liver": {"system": "liver", "assay": "Treatment of ob/ob mice: liver weight and liver triglycerides", "type": "in vivo", "settings": "oral, 4 days", "text": "as §1"}, "CXCL16": {"system": "CXCL16", "assay": "Flow cytometry of TNFα-induced CXCL16 expression in HUVEC", "type": "cell-based, human", "settings": "3 µM, TNFα 20 ng/mL 24 h", "description": "The cells were collected from the flasks using accutase (StemPro® Accutase® Cell Dissociation Reagent, ThermoFischer Scientific, Waltham, MA).\nThen they were washed and incubated for 1 h with a APC-conjugated mAb antibody against human VCAM-1 (100 µg/mL; clone STA, BioLegend, San Diego, CA), a FITC- conjugated mAb against human ICAM-1 (400 µg/mL; clone HA58, BioLegend, San Diego, CA), a PE-conjugated mAb against human CX3CL1 (1.25 µg/mL; clone 51637, R&D Systems, Minneapolis, MN) or with a APC-conjugated mAb antibody against human CXCL16 (clone 256213, R&D Systems, Abingdon, UK), all at a dilution of 1:25 in 3% BSA/PBS. The samples were analyzed using a BD FACSVerse Flow Cytometer (BD Biosciences, San Jose, CA)."}}, "data": [{"compound": "C/C(=C\\CCC1(C)CCc2cc(O)cc(C)c2O1)CC/C=C(\\C)C(=O)O", "note": "(centres unmarked) [Polycerasoidol, 1, polycerasoidol]", "values": [{"measurement": "RXRα/PPARγ interaction", "setting": "RXRα/PPARγ interaction", "value": "increased RXRα/PPARγ interaction"}]}, {"compound": "CCOC(=O)CCC(C)=CCCC1(C)CCc2cc(OCc3ccc(F)cc3)ccc2O1", "note": "(centres unmarked) [Compound 9]", "values": [{"measurement": "expression of MCP-1 in WAT", "setting": "MCP-1", "value": "significantly reduced"}, {"measurement": "Weight gain (d5-d0)", "setting": "[1]; 30 mg/Kg/d", "value": "1.88 ± 0.52", "unit": "g"}, {"measurement": "Feed efficiency (ratio of weight gain and food consumed)", "setting": "[1]", "value": "no observable differences"}, {"measurement": "weight gain compared to the control group", "setting": "[1]; doses of 10 and 30 mg/Kg/d", "value": "did not cause significant differences"}, {"measurement": "triglyceride content in the liver compared to the ob/ob control group", "setting": "liver; 30 mg/Kg/d", "value": "did not accumulate significantly"}, {"measurement": "liver weight with respect to the ob/ob control group", "setting": "liver", "value": "non-significant weight increase"}, {"measurement": "expression of CXCL16 induced by TNFα", "setting": "CXCL16", "value": "significant decrease"}]}]}
